{"source": "patent US4965272A", "about": "“Antimicrobial compound and compositions particularly effective against candida albicans” (priority 1988, dated 1990)", "key": {"[1]": {"conditions": "humans, under varying conditions; cited from earlier work"}, "[2]": {"system": "Candida albicans", "test": "in vivo testing, disseminated infection of Candida albicans in outbred mice", "source_text": "In the in vivo testing of the inventive compound and compositions, outbred mice were used. A disseminated infection of Candida albicansin the test animals was achieved by intravenous injection of 0.5 to 1×10^6 CFU of the pathogen. The organism is rapidly cleared from the blood and most tissues, except the kidney which is the primary target organ for the disseminated infection in mice. It is known than an inoculum of 0.5×10^6 CFU will cause death of outbred mice within 10-14 days due to disseminated infection if untreated. The vehicle used for administering the compound of the invention was a mixture consisting of 50% USP water, 40% propylene glycol and 10% absolute ethonol."}, "[3]": {"system": "Cryptococcus neoformans 32264", "test": "MIC, twofold serial broth dilution assay", "format": "cell-based"}, "[4]": {"system": "Aspergillus flavus 9170", "test": "MIC, twofold serial broth dilution assay", "format": "cell-based"}, "[5]": {"system": "Candida albicans WH", "test": "MIC, twofold serial broth dilution assay", "format": "cell-based", "conditions": "Candida albicans clinical isolate WH; 24 and 48 hours at 37°", "procedure": "(§1) Candida albicansNIH B311 used to induce experimental disseminated candidiasis was used for the initial qualitative evaluation of anticandidal activity. The organism was grown in Sabouraud-dextrose broth (SDB) for 14 hours at 37°, at which time the cells were harvested by centrifugation (4°, 2000 rpm, 3 min). After centrifugation, the cells were washed and suspended in sterile 0.9% saline to give a final concentration of […] colony forming units (CFU) per ml (adjusted using a hemocytometer). Culture plates (15×100 mm) for the qualitative assay were prepared from 25 ml of Sabouraud-dextrose agar. Using sterile cotton swabs, the plates were streaked with the suspension ([…] of Candida albicansB311. Cylindrical plugs were removed from the agar plates by means of a sterile cork borer to produce wells with a diameter of approximately 11 mm. To the well was added 100 μl of solution or suspension of an extract, fraction, or pure compound. Crude extracts and fractions were tested at a concentration of 20 mg/ml, whereas pure compounds were tested at 1 mg/ml. When solvents other than H2 O, EtOH, MeOH, DMSO, DMF, or Me2 CO were required to dissolve extracts or compounds, solvent blanks were included. Anticandidal activity was recorded as the width (in mm) of the zone of inhibition following incubation of the plates at 37° for 24 hours. The antifungal agents amphotericin-B and ketoconazole were included as standards in each assay.\n(§2) The method used to determine the minimum inhibitory concentration (MIC) of the inventive compound was a twofold serial broth dilution assay in yeast nitrogen broth. In addition to Candida albicansB311, the MIC values for eupolauridine were also determined for two additional strains of Candida albicans: ATCC 10231 and a clinical isolate, designated WH. The inventive compound was initially tested using a concentration of 100 μg/ml in the first tube. The compound was added to sterile Sabouraud-dextrose broth as a solution in DMSO. The inoculum for the MIC determination was prepared as described for qualitative evaluation. […]"}, "[6]": {"system": "Candida albicans B311", "test": "MIC, twofold serial broth dilution assay", "format": "cell-based", "conditions": "24 and 48 hours at 37°", "procedure": "as §1, §2"}, "[7]": {"system": "Candida albicans 10231", "test": "MIC, twofold serial broth dilution assay", "format": "cell-based", "conditions": "ATCC10231; Candida albicans ATCC 10231; 24 and 48 hours at 37°", "procedure": "as §1, §2"}, "[8]": {"system": "Trichophyton mentagrophytes 9972", "test": "MIC, twofold serial broth dilution assay", "format": "cell-based"}, "[9]": {"system": "Candida albicans", "test": "anticandidal activity, agar-well diffusion assay (zone of inhibition)", "format": "cell-based", "conditions": "three test strains of Candida albicans", "procedure": "In vitro evaluation of the anticandidal activity of the inventive compound and compositions was carried out using the agar-well diffusion assay as follows:\nCandida albicansNIH B311 used to induce experimental disseminated candidiasis was used for the initial qualitative evaluation of anticandidal activity. The organism was grown in Sabouraud-dextrose broth (SDB) for 14 hours at 37°, at which time the cells were harvested by centrifugation (4°, 2000 rpm, 3 min). After centrifugation, the cells were washed and suspended in sterile 0.9% saline to give a final concentration of […] colony forming units (CFU) per ml (adjusted using a hemocytometer). Culture plates (15×100 mm) for the qualitative assay were prepared from 25 ml of Sabouraud-dextrose agar. […] Anticandidal activity was recorded as the width (in mm) of the zone of inhibition following incubation of the plates at 37° for 24 hours. […]"}, "[10]": {"system": "Aspergillus fumigatus 26934", "test": "MIC, twofold serial broth dilution assay", "format": "cell-based"}, "[11]": {"system": "Saccharomyces cerevisiae 9763", "test": "MIC, twofold serial broth dilution assay", "format": "cell-based"}}, "data": [{"compound": "C[C@@H]1[C@H](O)[C@@H](C)/C=C/C=C/C=C/C=C/C=C/C=C/C=C/[C@H](O[C@@H]2O[C@H](C)[C@@H](O)[C@H](N)[C@@H]2O)C[C@@H]2O[C@](O)(C[C@@H](O)C[C@@H](O)[C@H](O)CC[C@@H](O)C[C@@H](O)CC(=O)O[C@H]1C)C[C@H](O)[C@H]2C(=O)O", "note": "[Amphotericin-B, amphotericin-B, reference compound]", "values": [{"measurement": "side effects", "setting": "[1]", "value": "fever, anorexia, nausea and vomiting, diarrhea, muscle and joint pain, phlebitis and thiophlebitis, anemia, abnormal renal function, anuria, cardiovascular distress, hypertension and hypotension"}, {"measurement": "Number dead/Total", "setting": "[2]; 2.5 mg/kg, day 1", "value": "0/10"}, {"measurement": "Number dead/Total", "setting": "[2]; 2.5 mg/kg, day 2", "value": "0/10"}, {"measurement": "Number dead/Total", "setting": "[2]; 2.5 mg/kg, day 3", "value": "0/10"}, {"measurement": "Number dead/Total", "setting": "[2]; 2.5 mg/kg, day 4", "value": "0/10"}, {"measurement": "Number dead/Total", "setting": "[2]; 2.5 mg/kg, day 5", "value": "0/10"}, {"measurement": "Number dead/Total", "setting": "[2]; 2.5 mg/kg, day 6", "value": "1/10"}, {"measurement": "Number dead/Total", "setting": "[2]; 2.5 mg/kg, day 7", "value": "2/10"}, {"measurement": "Number dead/Total", "setting": "[2]; 2.5 mg/kg, day 8", "value": "2/10"}, {"measurement": "Number dead/Total", "setting": "[2]; 2.5 mg/kg, day 9", "value": "4/10"}, {"measurement": "Number dead/Total", "setting": "[2]; 2.5 mg/kg, day 10", "value": "4/10"}]}, {"compound": "c1ccc2c(c1)-c1nccc3ccnc-2c13", "note": "[Eupolauridine, eupolauridine]", "values": [{"measurement": "MIC", "setting": "[3]", "value": 1.56, "unit": "µg/mL"}, {"measurement": "MIC", "setting": "[4]", "value": 6.25, "unit": "µg/mL"}, {"measurement": "MIC", "setting": "[5]", "value": 1.56, "unit": "µg/mL"}, {"measurement": "MIC", "setting": "[6]", "value": 1.56, "unit": "µg/mL"}, {"measurement": "MIC", "setting": "[7]", "value": 1.56, "unit": "µg/mL"}, {"measurement": "MIC", "setting": "[8]", "value": 1.56, "unit": "µg/mL"}, {"measurement": "zone of inhibition", "setting": "[9]", "value": "remarkable zone of inhibition"}, {"measurement": "MIC", "setting": "[10]", "value": 6.25, "unit": "µg/mL"}, {"measurement": "Number dead/Total", "setting": "[2]; 2 mg/kg, day 1", "value": "0/10"}, {"measurement": "Number dead/Total", "setting": "[2]; 2 mg/kg, day 2", "value": "0/10"}, {"measurement": "Number dead/Total", "setting": "[2]; 2 mg/kg, day 3", "value": "0/10"}, {"measurement": "Number dead/Total", "setting": "[2]; 2 mg/kg, day 4", "value": "0/10"}, {"measurement": "Number dead/Total", "setting": "[2]; 2 mg/kg, day 5", "value": "0/10"}, {"measurement": "Number dead/Total", "setting": "[2]; 2 mg/kg, day 6", "value": "1/10"}, {"measurement": "Number dead/Total", "setting": "[2]; 2 mg/kg, day 7", "value": "3/10"}, {"measurement": "Number dead/Total", "setting": "[2]; 2 mg/kg, day 8", "value": "4/10"}, {"measurement": "Number dead/Total", "setting": "[2]; 2 mg/kg, day 9", "value": "4/10"}, {"measurement": "Number dead/Total", "setting": "[2]; 2 mg/kg, day 10", "value": "7/10"}, {"measurement": "Number dead/Total", "setting": "[2]; 7 mg/kg, day 1", "value": "0/10"}, {"measurement": "Number dead/Total", "setting": "[2]; 7 mg/kg, day 2", "value": "0/10"}, {"measurement": "Number dead/Total", "setting": "[2]; 7 mg/kg, day 3", "value": "2/10"}, {"measurement": "Number dead/Total", "setting": "[2]; 7 mg/kg, day 4", "value": "2/10"}, {"measurement": "Number dead/Total", "setting": "[2]; 7 mg/kg, day 5", "value": "2/10"}, {"measurement": "Number dead/Total", "setting": "[2]; 7 mg/kg, day 6", "value": "3/10"}, {"measurement": "Number dead/Total", "setting": "[2]; 7 mg/kg, day 7", "value": "3/10"}, {"measurement": "Number dead/Total", "setting": "[2]; 7 mg/kg, day 8", "value": "3/10"}, {"measurement": "Number dead/Total", "setting": "[2]; 7 mg/kg, day 9", "value": "4/10"}, {"measurement": "Number dead/Total", "setting": "[2]; 7 mg/kg, day 10", "value": "7/10"}, {"measurement": "animals survived", "setting": "[2]; 20 mg/kg body weight, 10 days", "value": 50, "unit": "%"}, {"measurement": "survival compared with amphotericin-B", "setting": "[2]; 20 mg/kg body weight, 10 days", "value": "not statistically significantly different from the results with amphotericin-B"}, {"measurement": "Number dead/Total", "setting": "[2]; 20 mg/kg, day 1", "value": "0/10"}, {"measurement": "Number dead/Total", "setting": "[2]; 20 mg/kg, day 2", "value": "0/10"}, {"measurement": "Number dead/Total", "setting": "[2]; 20 mg/kg, day 3", "value": "0/10"}, {"measurement": "Number dead/Total", "setting": "[2]; 20 mg/kg, day 4", "value": "0/10"}, {"measurement": "Number dead/Total", "setting": "[2]; 20 mg/kg, day 5", "value": "0/10"}, {"measurement": "Number dead/Total", "setting": "[2]; 20 mg/kg, day 6", "value": "0/10"}, {"measurement": "Number dead/Total", "setting": "[2]; 20 mg/kg, day 7", "value": "1/10"}, {"measurement": "Number dead/Total", "setting": "[2]; 20 mg/kg, day 8", "value": "3/10"}, {"measurement": "Number dead/Total", "setting": "[2]; 20 mg/kg, day 9", "value": "3/10"}, {"measurement": "Number dead/Total", "setting": "[2]; 20 mg/kg, day 10", "value": "5/10"}, {"measurement": "MIC", "setting": "[11]", "value": 3.12, "unit": "µg/mL"}]}]}
